Measured values published in patent publication US11535670B2, “Combination therapies of HDAC inhibitors and PD-L1 inhibitors” (HUYABIO International, LLC, priority 2016, dated 2022).

Experiments:
[1] = tested on: MC38 murine colon carcinoma; experiment: Example 2: tumor growth delay in MC38 syngeneic model, HBI-8000 alone and with PD-L1 inhibitor antibody; format: in vivo, C57BL/6 mice; conditions: HBI-8000 50 mg/kg p.o. qd×21, anti-PDL-1 5 mg/kg i.p. biwk×3
Procedure: In the present example, HBI-8000 was tested as monotherapy and in combination with PD-L1 inhibitor antibody at 5 mg/kg. The experiment included a vehicle-treated group and a PD-L1 inhibitor antibody monotherapy group, which served as the control groups for analysis of efficacy. Tumors were measured twice per week until the study was ended on Day 50. Each animal was euthanized when its tumor attained the endpoint tumor volume of 1000 mm^3 or on the final day of the study, whichever came first, and the time to endpoint (TTE) for each mouse was calculated. Treatment response was determined from an analysis of percent tumor growth delay (% TGD), defined as the percent increase in the median time to endpoint (TTE) for treated versus control mice; and by logrank significance of differences in survival among groups and regression responses.
Mice: Details of the animals used in this example can be found in Example 1.
Tumor Cell Culture: Details of the tumor cells used in this example can be found in Example 1.
Tumor Implantation and Measurement: Details of tumor implantation and measurement of tumor growth used in this example can be found in paragraph Example 1. […]
Statistics: Details of the statistics and software used in this study can be found in Example 1. […] Table 3.1 describes the values calculated for TTE and % TGD for each treatment group.

[2] = tested on: MC38 murine colon carcinoma; experiment: Example 3: second-line therapy of MC38 tumors progressing after first-line PD-1 inhibitor antibody, response rates; format: in vivo, C57BL/6 mice; conditions: second-line after failing PD-1 inhibitor antibody; HBI-8000 50 mg/kg p.o. qd×21; antibodies 5 mg/kg i.p. biwk×2 (Table 4: biwk × 3)
Excerpt: In this model, a proportion of the animals treated 1st line with the PD-1 checkpoint inhibitor antibody experience complete tumor regression. However, a similar proportion of animals treated 1st line with the PD-1 inhibitor antibody experience rapid tumor progression. The balance of the animals treated in this way experience slow tumor progression or stable disease, which is a result which approximates the situation in a number of human cancer patients receiving PD-1 inhibitor antibody therapy, i.e., they experience a transient partial response, including stable disease, but then develop resistance and rapidly progress, failing PD-1 inhibitor antibody therapy. In this example, the efficacy of HBI-8000 (DZ1) as a second-line therapy, alone and in combination with PDL-1 inhibitor antibody 10F.9G2 (anti-PDL-1), was evaluated for the ability to cause tumor growth delay (TGD) in animals which tumors progressed following PD-1 inhibitor antibody first line of therapy in the MC38 murine colon carcinoma syngeneic model in immunocompetent C57BL/6 mice.
Female C57BL/6 mice bearing subcutaneous MC38 tumors (mean tumor volume: 114 mm^3 when treatment began) were treated with a first line of therapy of PD-1 inhibitor antibody treatment, administered intraperitoneally (i.p.) at 5 mg/kg, twice weekly for two weeks (biwk×2). […] Dosing began on Dl, which represented the day of recruitment and varied among mice (this was normalized for each group). The second line therapies were as follows. Vehicle was administered orally (p.o.). HBI-8000 was administered p.o. at 50 mg/kg. PD-1 inhibitor antibody and anti-PDL-1 were each administered intraperitoneally (i.p) at 5 mg/kg. Group 1 mice served as controls and received 0.2% carboxymethyl cellulose: 0.1% Tween 80 in deionized water (vehicle) once daily for twenty-one days (qd×21). Group 2 received HBI-8000 qd×21. Group 3 received a second course of PD-1 inhibitor antibody biwk×2. Group 4 received HBI-8000 qd×21 and PD-1 inhibitor antibody biwk×2. Group 5 received anti-PDL-1 biwk×2. Group 6 received HBI-8000 qd×21 and anti-PDL-1 biwk×2. […]

Structure (SMILES): Nc1cc(F)ccc1NC(=O)c1ccc(CNC(=O)/C=C/c2cccnc2)cc1 [HBI-8000, N-(2-amino-4-fluorophenyl)-4-[[[(2E)-1-oxo-3-(3-pyridinyl)-2-propen-1-yl]amino]methyl]benzamide]
- Median TTE ([1]; endpoint 1000 mm^3 or Day 50): 28.4 days
- % TGD ([1]; versus vehicle): 62%
- Response rate: CR (complete response) [2]: 20%
- Response rate: NR (no response) [2]: 40%
- Response rate: PR (partial response) [2]: 40%
